SMILES strings stand for the structures. pIC50: −log10 of the molar value.

Assay [1] has as its system β-catenin in d-U937 cells. The experiment in a line: Accumulation of β catenin in d-U937 cells (assay m). It is filed as cell-based, human. The procedure, abridged:
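U937 cells were differentiated with PMA (100 ng/mL) for 48–72 hr, then treated with compound or vehicle for 18 hr. After formaldehyde fixation, β-catenin was detected with a primary antibody and an HRP secondary using TMB (OD450–655). Signal was normalised to crystal violet cell staining (OD595).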

For a further assay, the target named is c-Src (Homo sapiens (Human), UniProt P12931). Put plainly: c-Src enzyme inhibition (FRET, Z-LYTE). Format: biochemical. Put shortly:
(§1)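 Syk or c-Src enzyme (3000 or 2000 ng/mL solutions) was preincubated 2 h at RT with compound solutions at 1, 0.1, 0.01 or 0.001 µg/mL. Z-LYTE FRET peptide (8 µM solution) and ATP (800 µM solution for c-Src, 60 µM for Syk) were then added for 1 h, followed by protease development for 1 h. Phosphorylation was read as the coumarin/fluorescein emission ratio.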

The target in another assay is p38 MAPKα (MAPK14) (Homo sapiens (Human), UniProt Q16539). The experiment in a line: p38 MAPKα enzyme inhibition (FRET, Z-LYTE; Method 2). Format: biochemical.
In the next assay the target is GSK 3α (Homo sapiens (Human), UniProt P49840). The experiment in a line: GSK 3α enzyme inhibition (FRET, Z-LYTE; Method 2). Format: biochemical. The following applies: read-out: IC50 Values for Enzyme Inhibition GSK3α. The procedure, abridged:
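Z-LYTE FRET assay: GSK3-α (500 ng/mL stock) preincubated 105 min at RT with compound at 10, 1, 0.1 or 0.01 μg/mL stock. FRET peptide (8 μM stock) and ATP (40 μM stock) were then added for 1 h, followed by protease development for 1 h. Phosphorylation was read as coumarin/fluorescein emission ratio.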

The next assay deals with Syk (Homo sapiens (Human), UniProt P43405). Put plainly: Syk enzyme inhibition (FRET, Z-LYTE). Format: biochemical. Put shortly: as §1

Chain of c-Src (P12931 whole entry, looked up): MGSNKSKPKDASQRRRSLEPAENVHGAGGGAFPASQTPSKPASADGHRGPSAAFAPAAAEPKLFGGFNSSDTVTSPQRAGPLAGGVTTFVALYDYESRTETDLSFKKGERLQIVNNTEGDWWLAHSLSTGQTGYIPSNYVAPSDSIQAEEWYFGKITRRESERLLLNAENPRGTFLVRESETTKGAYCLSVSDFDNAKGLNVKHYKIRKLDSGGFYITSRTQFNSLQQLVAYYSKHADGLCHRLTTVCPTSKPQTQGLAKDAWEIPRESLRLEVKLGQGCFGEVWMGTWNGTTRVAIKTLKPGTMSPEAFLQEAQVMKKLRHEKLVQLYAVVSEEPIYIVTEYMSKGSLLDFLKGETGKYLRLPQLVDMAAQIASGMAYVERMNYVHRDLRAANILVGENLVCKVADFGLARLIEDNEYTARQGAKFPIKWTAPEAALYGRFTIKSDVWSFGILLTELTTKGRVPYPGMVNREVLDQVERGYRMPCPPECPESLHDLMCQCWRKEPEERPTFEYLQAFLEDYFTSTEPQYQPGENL
Chain of p38 MAPKα (MAPK14) (Q16539 whole entry): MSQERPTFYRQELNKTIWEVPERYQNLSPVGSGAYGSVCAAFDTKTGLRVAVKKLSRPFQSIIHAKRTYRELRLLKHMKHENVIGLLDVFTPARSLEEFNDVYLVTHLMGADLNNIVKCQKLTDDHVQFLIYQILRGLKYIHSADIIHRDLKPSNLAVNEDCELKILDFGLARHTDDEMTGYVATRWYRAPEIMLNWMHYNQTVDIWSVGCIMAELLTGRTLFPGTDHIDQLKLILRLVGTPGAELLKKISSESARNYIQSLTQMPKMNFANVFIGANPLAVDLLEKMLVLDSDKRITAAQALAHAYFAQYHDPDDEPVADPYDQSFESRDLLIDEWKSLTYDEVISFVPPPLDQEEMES
Chain of GSK 3α (P49840 whole entry): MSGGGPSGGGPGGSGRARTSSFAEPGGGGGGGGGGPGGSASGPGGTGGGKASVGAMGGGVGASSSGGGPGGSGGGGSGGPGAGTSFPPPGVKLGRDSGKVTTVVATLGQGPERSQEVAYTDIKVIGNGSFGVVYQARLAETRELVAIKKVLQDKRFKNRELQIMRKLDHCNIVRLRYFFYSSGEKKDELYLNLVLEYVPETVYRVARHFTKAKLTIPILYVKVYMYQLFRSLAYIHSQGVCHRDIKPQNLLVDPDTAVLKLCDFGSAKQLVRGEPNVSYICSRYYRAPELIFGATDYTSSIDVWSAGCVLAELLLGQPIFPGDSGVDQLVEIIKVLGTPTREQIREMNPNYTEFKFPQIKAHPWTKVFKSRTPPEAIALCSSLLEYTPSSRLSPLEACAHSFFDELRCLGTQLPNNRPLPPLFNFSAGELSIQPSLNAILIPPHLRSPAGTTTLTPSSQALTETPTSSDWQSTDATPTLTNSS

The pIC50 is −log10 of the IC50, conventionally taken in molar units. Take `C#Cc1cc(Nc2cc(Oc3ccc(NC(=O)Nc4cc(C(C)(C)C)cc(NS(C)(=O)=O)c4OC)c4ccccc34)ccn2)cc(C(=O)NCCN2CCOCC2)c1` [Example 49, 3-((4-((4-(3-(5-(tert-Butyl)-2-methoxy-3-methylsulfonamido)phenyl)ureido)naphthalen-1-yl)oxy)pyridin-2-yl)amino-5-ethynyl-N-(2-morpholinoethyl)benzamide]: the “% β-catenin induction” value is recorded as −1% in assay [1] (test compound 1 μg/mL), −2% in assay [1] (test compound 5 μg/mL) and −5% in assay [1] (test compound 10 μg/mL). The pIC50 against c-Src is 7.25; at p38 MAPKα (MAPK14), 6.59; at GSK 3α, 5.08; at Syk it was 5.91.

Turning to `COCCOCCOCCOc1cc(Nc2nccc(Oc3ccc(NC(=O)Nc4cc(C(C)(C)C)cc(C(=O)NC5COC5)c4OC)c4ccccc34)n2)cc(OC)c1` [Example 51, 5-(tert-Butyl)-2-methoxy-3-(3-(4-((2-((3-methoxy-5-(2-(2-(2-methoxyethoxy)ethoxy)-ethoxy)phenyl)amino)pyrimidin-4-yl)oxy)naphthalen-1-yl)ureido)-N-(oxetan-3-yl)-benzamide], the “% β-catenin induction” value turned out to be 3% in assay [1] (test compound 1 μg/mL), 33% in assay [1] (test compound 5 μg/mL) and 29% in assay [1] (test compound 10 μg/mL). Besides, the negative-log IC50 (pIC50) on c-Src is 7.82; on p38 MAPKα (MAPK14) it was 6.77; on GSK 3α, 6.01; on Syk, 7.31.

Consider `C#Cc1cc(Nc2cc(Oc3ccc(NC(=O)Nc4cc(C(C)(C)C)cc(NS(C)(=O)=O)c4OC)c4ccccc34)ccn2)cc(C(=O)NCCOCCOC)c1` [Example 52], for which the “% β-catenin induction” value was 2% in assay [1] (test compound 1 μg/mL), 9% in assay [1] (test compound 5 μg/mL) and 1% in assay [1] (test compound 10 μg/mL). Further, the pIC50 on c-Src was 7.00; on p38 MAPKα (MAPK14), 6.56; on GSK 3α it was 4.90; against Syk it was 5.90.

For `C#Cc1cc(Nc2cc(Oc3ccc(NC(=O)Nc4cc(C(C)(C)C)cc(C(N)=O)c4OC)c4ccccc34)ccn2)cc(C(=O)NCCOCCOCCOC)c1` [Example 53, 3-((4-((4-(3-(5-(tert-Butyl)-3-carbamoyl-2-methoxyphenyl)ureido)naphthalen-1-yl)oxy)pyridin-2-yl)amino)-5-ethynyl-N-(2-(2-(2-methoxyethoxy)ethoxy)ethyl)benzamide], the “% β-catenin induction” value is given as −1% in assay [1] (test compound 1 μg/mL), 1% in assay [1] (test compound 5 μg/mL) and 2% in assay [1] (test compound 10 μg/mL). For the same compound, the pIC50 against c-Src is 7.34; against p38 MAPKα (MAPK14), 6.88; on GSK 3α, 5.06; at Syk, 5.90.

With `C#Cc1cc(Nc2cc(Oc3ccc(NC(=O)Nc4cc(C(C)(C)C)cc(NS(C)(=O)=O)c4OC)c4ccccc34)ccn2)cc(C(=O)NCCOCCOCCOC)c1` [Example 54], the “% β-catenin induction” value in assay [1] (test compound 1 μg/mL) is given as 5%; in assay [1] (test compound 5 μg/mL), 5%; in assay [1] (test compound 10 μg/mL) it was −2%. In addition, the pIC50 against c-Src was 7.38; against p38 MAPKα (MAPK14), 6.85; on GSK 3α, 4.92; at Syk, 5.92.

As for `COCCOCCOCCOc1cc(Nc2nccc(Oc3ccc(NC(=O)Nc4cc(C(C)(C)C)cc(S(N)(=O)=O)c4OC)c4ccccc34)n2)cc(OC)c1` [Example 55, 5-(tert-Butyl)-2-methoxy-3-(3-(4-((2-((3-methoxy-5-(2-(2-(2-methoxyethoxy)ethoxy)-ethoxy)phenyl)amino)pyrimidin-4-yl)oxy)naphthalen-1-yl)ureido)benzenesulfonamide], the “% β-catenin induction” value in assay [1] (test compound 1 μg/mL) came out at 11%; in assay [1] (test compound 5 μg/mL), 23%; in assay [1] (test compound 10 μg/mL) it was 45%. In addition, the pIC50 was 7.66 against c-Src, 6.80 on p38 MAPKα (MAPK14), 5.63 on GSK 3α and 6.88 on Syk.

As to `C#Cc1cc(Nc2nccc(Oc3ccc(NC(=O)Nc4cc(C(C)(C)C)cc(NS(C)(=O)=O)c4OC)c4ccccc34)n2)cc(C(=O)N[C@H](C)CN2CCOCC2)c1` [Example 56, (R)-3-((4-((4-(3-(5-(tert-Butyl)-2-methoxy-3-(methysulfonamido)phenyl)ureido)-naphthalen-1-yl)oxy)pyrimidin-2-yl)amino)-5-ethynyl-N-(1-morpholinopropan-2-yl)-benzamide], the “% β-catenin induction” value is reported as 3% in assay [1] (test compound 1 μg/mL), 13% in assay [1] (test compound 5 μg/mL) and 14% in assay [1] (test compound 10 μg/mL). Besides, the pIC50 at c-Src is 7.35; on p38 MAPKα (MAPK14), 6.47; on GSK 3α it was 6.12; at Syk, 6.20.

For the compound `C#Cc1cc(Nc2nccc(Oc3ccc(NC(=O)Nc4cc(C(C)(C)C)cc(NS(C)(=O)=O)c4OC)c4ccccc34)n2)cc(C(=O)N[C@@H](C)CN2CCOCC2)c1` [Example 57, (S)-3-((4-((4-(3-(5-(tert-butyl)-2-methoxy-3-(methylsulfonamido)phenyl)ureido)-naphthalen-1-yl)oxy)pyrimidin-2-yl)amino)-5-ethynyl-N-(1-morpholinopropan-2-yl)benzamide], the “% β-catenin induction” value stood at 4% in assay [1] (test compound 1 μg/mL), 6% in assay [1] (test compound 5 μg/mL) and 11% in assay [1] (test compound 10 μg/mL). The pIC50 is 7.32 against c-Src, 6.54 at p38 MAPKα (MAPK14), 5.95 at GSK 3α and 6.15 at Syk.

Regarding `COCCOCCOCCOc1cc(Nc2nccc(Oc3ccc(NC(=O)Nc4cc(C(C)(C)C)cc(NS(C)(=O)=O)c4OC)c4ccccc34)n2)cc(OC)c1Cl` [Example 58, N-(5-(tert-Butyl)-3-(3-(4-((2-((4-chloro-3-methoxy-5-(2-(2-(2-methoxyethoxy)ethoxy)ethoxy)-phenyl)amino)pyrimidin-4-yl)oxy)naphthalen-1-yl)ureido)-2-methoxyphenyl)-methanesulfonamide], the “% β-catenin induction” value in assay [1] (test compound 1 μg/mL) amounted to 5%; in assay [1] (test compound 5 μg/mL), 2%; in assay [1] (test compound 10 μg/mL), 10%. In addition, the pIC50 against c-Src was 7.32; against p38 MAPKα (MAPK14), 6.74; at GSK 3α, 5.36; on Syk, 6.34.

On to `COCCOCCOCCOc1cc(Nc2nccc(Oc3ccc(NC(=O)Nc4cc(C(C)(C)C)cc(-c5nnco5)c4OC)c4ccccc34)n2)cc(OC)c1` [Example 59, 1-(5-(tert-Butyl)-2-methoxy-3-(1,3,4-oxadiazol-2-yl)phenyl)-3-(4-((2-((3-methoxy-5-(2-(2-(2-methoxyethoxy)ethoxy)ethoxy)phenyl)amino)pyrimidin-4-yl)oxy)naphthalen-1-yl)urea], for which the “% β-catenin induction” value in assay [1] (test compound 1 μg/mL) was found to be 14%; in assay [1] (test compound 5 μg/mL) it was 33%; in assay [1] (test compound 10 μg/mL), 28%. For the same compound, the pIC50 is 7.55 at c-Src, 6.88 against p38 MAPKα (MAPK14), 6.01 at GSK 3α and 6.89 at Syk.

`C#Cc1cc(Nc2cc(Oc3ccc(NC(=O)Nc4cc(NS(C)(=O)=O)cc(C(C)(C)C)c4)c4ccccc34)ccn2)cc(C(=O)NCCN2CCOCC2)c1` [Example 65, 3-((4-((4-(3-(3-(tert-Butyl)-5-(methylsulfonamido)phenyl)ureido)naphthalen-1-yl)oxy)-pyridin-2-yl)amino)-5-ethynyl-N-(2-morpholinoethyl)benzamide]: the “% β-catenin induction” value in assay [1] (test compound 1 μg/mL) came to 5%; in assay [1] (test compound 5 μg/mL), 2%; in assay [1] (test compound 10 μg/mL) it was 6%. Besides, the pIC50 was 7.07 at c-Src, 6.49 on p38 MAPKα (MAPK14), 5.13 on GSK 3α and 5.89 on Syk.
